Patent US8431567B2 (Abbott GmbH & Co. KG, priority 2006, dated 2013)
Where a name gives a salt, the structure may show the parent alone.

Biological target: T1, human vasopressin V1b receptor (Homo sapiens, UniProt P47901)
T1 construct: expressed in transfected cells; host or cells: CHO-K1 (cell line hV1b_3H2_CHO), membrane preparation
T1 sequence (P47901 1-424): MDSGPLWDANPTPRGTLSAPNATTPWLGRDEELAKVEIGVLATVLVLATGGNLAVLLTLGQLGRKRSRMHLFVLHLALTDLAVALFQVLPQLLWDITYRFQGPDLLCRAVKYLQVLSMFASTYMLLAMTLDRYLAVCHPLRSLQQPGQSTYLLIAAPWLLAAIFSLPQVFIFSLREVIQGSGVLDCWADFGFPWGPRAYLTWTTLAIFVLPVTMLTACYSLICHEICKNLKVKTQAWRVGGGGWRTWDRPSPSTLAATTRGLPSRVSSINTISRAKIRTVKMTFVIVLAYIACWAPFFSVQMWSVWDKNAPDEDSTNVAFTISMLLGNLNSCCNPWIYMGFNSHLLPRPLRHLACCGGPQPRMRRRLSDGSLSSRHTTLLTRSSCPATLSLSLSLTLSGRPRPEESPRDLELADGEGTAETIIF
Experiment: Vasopressin V1b receptor binding test
Details: membranes of CHO-K1 cells, displacement of 1.5 nM 3H-AVP
Procedure: • Vasopressin V1b Receptor Binding Test: • Substances:
The test substances were dissolved at a concentration of 10^−2 M in DMSO and diluted further in DMSO to 5×10^−4 M to 5×10^−9 M. These DMSO solutions were diluted 1:10 with test buffer. The concentration of substance was again diluted 1:5 in the test preparation.
The membrane pellet was homogenized and centrifuged again as described, and then taken up in 50 mM Tris-HCl, pH 7.4, homogenized and, frozen in aliquots, stored at −190° C. in liquid nitrogen.
The incubation buffer was: 50 mM Tris, 10 mM MgCl2, 0.1% BSA, pH 7.4. […] The nonspecific binding was determined with 1 μM AVP (Bachem #H1780). All determinations were performed in triplicate. After incubation (60 minutes at room temperature), the free radioligand was filtered off by vacuum filtration (Skatron cell harvester 7000) on Whatman GF/B glass-fibre filter mats and the filters were transferred to scintillation vessels. Liquid scintillation measurement was performed in a Tricarb instrument, Model 2000 or 2200CA (Packard). Conversion of the measured cpm to dpm was performed with the aid of a standard quench series.
The binding parameters were calculated by nonlinear regression in SAS.
For the compounds according to the invention, the affinities for the human vasopressin receptor V1b were measured according to the above test and the affinity constant (Ki) was determined.

Row | Ki | SMILES
1 | 50 to 500 nM | COc1ccc(S(=O)(=O)N2C(=O)C(c3ccccc3OC)(N3CCN(c4ccncc4)CC3)c3cc(C#N)ccc32)c(OC)c1 (centres unmarked) [Example 26, 5-Cyano-1-(2,4-dimethoxy-benzenesulphonyl)-3-(2-methoxyphenyl)-3-(4-pyridin-4-yl-piperazin-1-yl)-2,3-dihydro-1H-indol-2-one]
2 | < 50 nM | CCOc1ccc(OC)cc1C1(N2CCN(c3ccnc(C)c3)CC2)C(=O)N(S(=O)(=O)c2ccc(OC)cc2OC)c2ccc(C#N)cc21 (centres unmarked) [Example 50, 5-Cyano-1-(2,4-dimethoxy-benzenesulphonyl)-3-(2-ethoxy-5-methoxyphenyl)-3-[4-(2-methyl-pyridin-4-yl)-piperazin-1-yl]-2,3-dihydro-1H-indol-2-one]
3 | 50 to 500 nM | COc1ccc(S(=O)(=O)N2C(=O)C(c3cc(OC)ccc3OC(C)C)(N3CCN(c4ccncc4)CC3)c3cc(C#N)ccc32)c(OC)c1 (centres unmarked) [Example 53, 5-Cyano-1-(2,4-dimethoxy-benzenesulphonyl)-3-(2-isopropoxy-5-methoxyphenyl)-3-(4-pyridin-4-yl-piperazin-1-yl)-2,3-dihydro-1H-indol-2-one]
4 | < 50 nM | CCOc1ccc(OC)cc1C1(N2CCN(c3ccncc3)CC2)C(=O)N(S(=O)(=O)c2ccc(OC)cc2OC)c2ccc(C#N)cc21 (centres unmarked) [Example 55, 5-Cyano-1-(2,4-dimethoxy-benzenesulphonyl)-3-(2-ethoxy-5-methoxyphenyl)-3-(4-pyridin-4-yl-piperazin-1-yl)-2,3-dihydro-1H-indol-2-one]
5 | 50 to 500 nM | CCOc1ccccc1C1(N2CCCN(c3ccncc3)CC2)C(=O)N(S(=O)(=O)c2ccc(OC)cc2OC)c2ccc(C#N)cc21 (centres unmarked) [Example 56, 5-Cyano-1-(2,4-dimethoxy-benzenesulphonyl)-3-(2-ethoxyphenyl)-3-(4-pyridin-4-yl-[1.4]diazepan-1-yl)-2,3-dihydro-1H-indol-2-one]
6 | < 50 nM | CCOc1cc(F)ccc1C1(N2CCN(c3ccncc3)CC2)C(=O)N(S(=O)(=O)c2ccc(OC)cc2OC)c2ccc(C#N)cc21 (centres unmarked) [Example 57, 5-Cyano-1-(2,4-dimethoxy-benzenesulphonyl)-3-(2-ethoxy-4-fluorophenyl)-3-(4-pyridin-4-yl-piperazin-1-yl)-2,3-dihydro-1H-indol-2-one]
7 | < 50 nM | CCOc1ccc(OC)cc1C1(N2CC3CN(c4ccncc4)CC3C2)C(=O)N(S(=O)(=O)c2ccc(OC)cc2OC)c2ccc(C#N)cc21 (centres unmarked) [Example 58, 5-Cyano-1-(2,4-dimethoxy-benzenesulphonyl)-3-(2-ethoxy-5-methoxyphenyl)-3-(5-pyridin-4-yl-hexahydro-pyrrolo[3,4-c]pyrrol-2-yl)-2,3-dihydro-1H-indol-2-one]
8 | < 50 nM | COc1ccc(S(=O)(=O)N2C(=O)C(c3cc(OC)ccc3OC)(N3CCN(c4ccncc4)CC3)c3cc(C#N)ccc32)c(OC)c1 (centres unmarked) [Example 59, 5-Cyano-1-(2,4-dimethoxy-benzenesulphonyl)-3-(2,5-dimethoxyphenyl)-3-(4-pyridin-4-yl-piperazin-1-yl)-2,3-dihydro-1H-indol-2-one]
9 | < 50 nM | CCOc1ccc(OC)cc1C1(N2CCCN(c3ccncc3)CC2)C(=O)N(S(=O)(=O)c2ccc(OC)cc2OC)c2ccc(C#N)cc21 (centres unmarked) [Example 60, 5-Cyano-1-(2,4-dimethoxy-benzenesulphonyl)-3-(2-ethoxy-5-methoxyphenyl)-3-(4-pyridin-4-yl-[1.4]diazepan-1-yl)-2,3-dihydro-1H-indol-2-one]

Continued, compound first:

Row | SMILES | Ki
10 | COc1ccc(S(=O)(=O)N2C(=O)C(c3ccccc3OC)(N3CCN(c4ccncc4)CC3)c3ccc(C)cc32)c(OC)c1 (centres unmarked) [Example 23, 1-(2,4-Dimethoxy-benzenesulphonyl)-3-(2-methoxyphenyl)-6-methyl-3-(4-pyridin-4-yl-piperazin-1-yl)-1,3-dihydro-indol-2-one] | 50 to 500 nM
11 | COc1ccc(S(=O)(=O)N2C(=O)C(c3ccccc3Cl)(N3CCN(c4ccncc4)CC3)c3cc(Cl)ccc32)c(OC)c1 (centres unmarked) [Example 24, 5-Chloro-3-(2-chloro-phenyl)-1-(2,4-dimethoxy-benzenesulphonyl)-3-(4-pyridin-4-yl-piperazin-1-yl)-1,3-dihydro-indol-2-one] | < 50 nM
12 | COc1ccc(S(=O)(=O)N2C(=O)C(c3cc(CN(C)C)ccc3OC)(N3CCN(c4ccncc4)CC3)c3cc(Cl)ccc32)c(OC)c1 (centres unmarked) [Example 25, 5-Chloro-1-(2,4-dimethoxy-benzenesulphonyl)-3-(5-dimethylaminomethyl-2-methoxyphenyl)-3-(4-pyridin-4-yl-piperazin-1-yl)-1,3-dihydro-indol-2-one] | 50 to 500 nM
13 | COc1ccc(S(=O)(=O)N2C(=O)C(c3ccccc3OC)(N3C[C@H]4C[C@@H]3CN4c3ccncc3)c3cc(Cl)ccc32)c(OC)c1 (stereo partly drawn) [Example 27, 5-Chloro-1-(2,4-dimethoxy-benzenesulphonyl)-3-(2-methoxyphenyl)-3-((1R,4R)-5-pyridin-4-yl-2,5-diaza-bicyclo[2.2.1]hept-2-yl)-1,3-dihydro-indol-2-one] | 50 to 500 nM
14 | COc1ccc(S(=O)(=O)N2C(=O)C(c3cc(OC)ccc3OC)(N3CCN(c4ccncc4)CC3)c3cc(OC)ccc32)c(OC)c1 (centres unmarked) [Example 28, 1-(2,4-Dimethoxy-benzenesulphonyl)-3-(2,5-dimethoxyphenyl)-5-methoxy-3-(4-pyridin-4-yl-piperazin-1-yl)-1,3-dihydro-indol-2-one] | < 50 nM
15 | COc1ccc(C2(N3CCN(c4ccncc4)CC3)C(=O)N(S(=O)(=O)c3ccc(OC)cc3OC)c3ccc(Cl)cc32)c(OC)c1 (centres unmarked) [Example 30, 5-Chloro-1-(2,4-dimethoxy-benzenesulphonyl)-3-(2,4-dimethoxyphenyl)-3-(4-pyridin-4-yl-piperazin-1-yl)-1,3-dihydro-indol-2-one, HCl salt] | < 50 nM
16 | COc1ccc(S(=O)(=O)N2C(=O)C(c3cccc(OC)c3OC)(N3CCN(c4ccncc4)CC3)c3cc(Cl)ccc32)c(OC)c1 (centres unmarked) [Example 31, 5-Chloro-1-(2,4-dimethoxy-benzenesulphonyl)-3-(2,3-dimethoxyphenyl)-3-(4-pyridin-4-yl-piperazin-1-yl)-1,3-dihydro-indol-2-one, HCl salt] | < 50 nM
17 | COCc1ccccc1C1(N2CCN(c3ccncc3)CC2)C(=O)N(S(=O)(=O)c2ccc(OC)cc2OC)c2ccc(Cl)cc21 (centres unmarked) [Example 32, 5-Chloro-1-(2,4-dimethoxy-benzenesulphonyl)-3-(2-methoxymethylphenyl)-3-(4-pyridin-4-yl-piperazin-1-yl)-1,3-dihydro-indol-2-one] | 50 to 500 nM
18 | CCOc1ccccc1C1(N2CCN(c3ccnc(C)c3)CC2)C(=O)N(S(=O)(=O)c2ccc(OC)cc2OC)c2ccc(C#N)cc21 (centres unmarked) [Example 35, 5-Cyano-1-(2,4-dimethoxy-benzenesulphonyl)-3-(2-ethoxyphenyl)-3-[4-(2-methyl-pyridin-4-yl)-piperazin-1-yl]-2,3-dihydro-1H-indol-2-one] | 50 to 500 nM
19 | CCOc1ccccc1C1(N2CCN(c3ccncc3)CC2)C(=O)N(S(=O)(=O)c2ccc(NC(C)=O)cc2)c2ccc(C#N)cc21 (centres unmarked) [Example 46, N-{4-[5-Cyano-3-(2-ethoxyphenyl)-2-oxo-3-(4-pyridin-4-yl-piperazin-1-yl)-2,3-dihydro-indole-1-sulphonyl]-phenyl}-acetamide] | 50 to 500 nM
20 | CCOc1ccccc1C1(N2CCN(c3ccncc3)CC2)C(=O)N(S(=O)(=O)c2ccc(OC)cc2OC)c2ccc(-c3ccco3)cc21 (centres unmarked) [Example 47, 1-(2,4-Dimethoxy-benzenesulphonyl)-3-(2-ethoxyphenyl)-5-furan-2-yl-3-(4-pyridin-4-yl-piperazin-1-yl)-1,3-dihydro-indol-2-one] | 50 to 500 nM
21 | CCOc1ccccc1C1(N2CCN(c3ccncc3)CC2)C(=O)N(S(=O)(=O)c2cccc(N)c2)c2ccc(C#N)cc21 (centres unmarked) [Example 48, 5-Cyano-1-(3-amino-benzenesulphonyl)-3-(2-ethoxyphenyl)-3-(4-pyridin-4-yl-piperazin-1-yl)-2,3-dihydro-1H-indol-2-one] | 50 to 500 nM
22 | CCOc1ccc(OC)cc1C1(N2C[C@@H]3C[C@H]2CN3c2ccncc2)C(=O)N(S(=O)(=O)c2ccc(OC)cc2OC)c2ccc(C#N)cc21 (stereo partly drawn) [Example 52, 5-Cyano-1-(2,4-dimethoxy-benzenesulphonyl)-3-(2-ethoxy-5-methoxyphenyl)-3-((1S,4S)-5-pyridin-4-yl-2,5-diaza-bicyclo[2.2.1]hept-2-yl)-2,3-dihydro-1H-indol-2-one] | < 50 nM
23 | CCOc1ccc(OC)cc1C1(N2CCN(c3ccncc3)CC2)C(=O)N(S(=O)(=O)c2ccc(C#N)cc2)c2ccc(C#N)cc21 (centres unmarked) [Example 61, 5-Cyano-1-(4-cyano-benzenesulphonyl)-3-(2-ethoxy-5-methoxyphenyl)-3-(4-pyridin-4-yl-piperazin-1-yl)-2,3-dihydro-1H-indol-2-one] | 50 to 500 nM
